# Experimental data published in US6730787B1, “2,4Dioxo-5-arylidenimino-1,3-pyrimidines” (priority 2001, dated 2004).
# Like-named read-outs stand apart in the source and are kept apart here.
# What was measured:
# no-breed white mice = type: in vivo; conditions: observed 72 hours, 300 was the maximally utilized concentration
# Method: Tested substance was introduced orally (in dose of 300 mg/kg) through a gastric tube or intraperitoneally (in dose of 100 mg/kg) to no-breed white mice with mass 18-20 g (each tested group consisted of 3 males and 3 females). Then the mouse state was observed during 72 hours. Absence of symptoms characteristic of toxic effects, or absence of animal death during the given time allows to make a conclusion that the toxicity of the tested substance is low. If acute toxicity effects are observed, the dose is reduced to find maximal tolerable dose.
# C.trachomatis D323 = assay: Effect on Chlamydia trachomatis in cell culture; type: cell-based; conditions: for percentage of cell protection from infection / Number of unchanged cells: 100 mg/l, 48 hours; for Number of unchanged cells: counted in 100 visual fields; for activity against chlamydia (in words): compared with Ciprofloxacin / compounds of Table 5
# Method: The […] activity of the claimed compounds was studied in respect to C.trachomatis […], which is a standard strain contained in the collection of the department of microbiology of St. Petersburg State Pavlov Medical University. […] Cells were grown in flasks made of neutral glass in the medium RPMI-1640 containing 10% of fetal calf serum. The test was performed in flat-bottom flasks made of glass (non-toxic), that were supplied with cover glasses. The cells were introduced into the medium in the final concentration of 1×10^6 cell/ml. […] Simultaneously, tested compounds in a final concentration of 100 mg/l were added to the cells. The sample was centrifuged at 2400 G for 60 minutes at a room temperature and incubated at 37° C. for 2 hours. […] The samples were doubled using the medium without cycloheximide so as to exclude its effect on the investigated compounds. The samples were incubated for 48 hours in CO2-incubator. […] The effect of the compound was determined by analysis of the monolayer state and number of cells with CPI when compared with the control (cell culture infected with C.trachomatis […]); in doing so, the number of unchanged cells, that were counted in 100 visual fields obtained using the eyepiece-micrometer, was taken into consideration.
# [1] = tested on: Mycobaciterium tuberculosis H37RV; assay: Antimicrobial effect, serial dilution method (MIC); type: cell-based, Mycobacterium tuberculosis; conditions: 72-hour cultivation at 37° C.
# [2] = tested on: primary culture of human lymphocytes; assay: Interferon-inducing activity in primary culture of human lymphocytes (IFN-α immunoenzyme test); type: cell-based
# Method: To obtain lymphocyte culture, fresh blood (within 12 hours after sampling) from healthy donors (not of group II) was used. To separate lymphocytes, heparinized blood obtained from healthy donor was centrifuged in a density gradient ficoll-verografin of […] in order to extract a fraction of immunocompetent cells. This fraction was selected and diluted with the nutrient medium RPMI-1640, containing 5% of fetal calf serum, 0.3 mg/ml of L-glutamin, 100 un/ml of penicillin, and 50 μg/ml of streptomycin. The concentration of lymphocytes was considered after dying them with methylene blue and calculation of cell number in a chamber of a hemocytometer. Initial solutions of the claimed compounds were diluted with the nutrient medium RPMI-1640 so that the final concentrations of the compounds which were obtained after introduction of lymphocyte suspension, constituted the raw: 100 μg/ml, 10 μg/ml, 1 μg/ml. The final concentration of lymphocytes in the induction mixture was 3×10^6 cell/ml.
# Control and test samples were incubated for 24 hours at the temperature of 37° C. After incubation, the samples were centrifuged at 2,000 G to deposit cell elements, and IFN-containing supernatant was separate out of the samples; then the supernatant was analyzed for the quantitative content of IFN. Cell deposition was resuspended in the preceding volume of nutrient medium, colored with vital dye trypan blue, and cell number was counted in a chamber of a hemocytometer (as described above) to determine cytotoxic effect of the compounds.
# Quantitative determination of the content of IFN in control and test samples was conducted using the immunoenzyme test system Pro Con IF2 Plus, that is intended for determination of IFN-α, which is produced by TOO <<Protein contour>>. The solid-phase immunoenzyme method, utilizing horse radish peroxidase as an indicator enzyme, was used to determine the quantity of interferon in the samples. Activity of the bonded peroxidase was measured using an automatic photometer for microplates with a microprocessor at the wavelength of 450 nm.
# Based on the obtained results, a calibrating curve was formed, which allows to obtain data expressed in international units (IU) of activity, using the microprocessor of the automatic photometer. The results of the analysis are expressed in IU of activity of IFN per ml in the given induction system, which contains 3×10^6 lymphocyte/ml. Each test and control point was investigated in four parallels.
# The obtained data were undergone a statistical analysis using t-criterion, and calculation of the confident interval of probability at p=0.05 was carried out. Coincidence between the results obtained in the parallel tests was analyzed.
# [3] = tested on: Herpes Simplex virus of the type I (HSV-I/Leningrad/248/88); assay: Effect on Herpes Simplex virus: cytopathogenic effect in Vero cells; type: cell-based; conditions: for Quantity of the unchanged cells: number of cells in 100 visual fields
# rats = assay: Hepatoprotective activity (CCl4 liver damage, AlAT); type: in vivo
# Method: CCl4 dissolved in 50% olive oil (1 ml/kg) was subcutaneously administrated to rats. Test substances were administrated perorally in a dose of 20 mg/kg 30 minutes before and 7 hours after the CCL4 administration. The activity of alanine-aminotranspherase (AlAT), which is a marker enzyme of liver parenchyma damage, was assessed twenty-four hours later. Reducing of enzyme amount by more than 30% relative to the control group was considered as evidence of hepatoprotective properties of the substance. Vitamin E in a dose of 100 mg/kg was used as a reference agent.
# mice [4] = assay: Analgesic activity (tail withdrawal from radiant heat); type: in vivo
# Method: The time needed to draw back a tail placed under a directed source of radiant heat was estimated in a group of 3 mice. Prolongation of the response time by more than 50% after intraperitoneal dosing the substance (30 mg/kg) indicated analgesic activity. Analginum (2 mg/kg) was utilized as a reference agent.
# mice [5] = assay: Psychodepressant activity (behavioral depression score); type: in vivo; conditions: one hour after per oral 300 mg/kg; total 60 points, less than 40 = significant behavioral depression; 3 mice
# Method: Each parameter scores 2 points for an each mouse that had unchanged behavior. The total point sum was 60 (2×10×3 mice). Reducing score to less than 40 one hour after dosing with a substance per oral (300 mg/kg) denoted significant behavioral depression. Haloperidol was utilized as a reference agent.
# [6] = Mycobacterium tuberculosis, H37RV, read-out: MIC
# [7] = compound 100 μg/ml, 36 hours of incubation
molecule,measurement,setting,value
"O=c1[nH]cc(N=Cc2ccc(Cl)cc2Cl)c(=O)[nH]1 [XI, 2,4-dioxo-5-(2,4-dichlorobenzylidene) imino-1,3-pyrimidine]",Maximal tolerable dose: Concentration of tested compounds (mg/l) at oral introducing,no-breed white mice,300 mg/L
same,percentage of cell protection from infection,C.trachomatis D323,55%
same,Number of unchanged cells,C.trachomatis D323,7.700
same,activity against chlamydia (in words),C.trachomatis D323,marked activity against chlamydia
CC1COc2c(N3CCN(C)CC3)c(F)cc3c(=O)c(C(=O)O)cn1c23 (stereo not drawn) [Ofloxacin],MIC,[1]; [6],0.5 µg/mL
[H]/N=C(/N)N[C@H]1[C@H](O)[C@@H](O)[C@H](O[C@@H]2O[C@@H](C)[C@](O)(C=O)[C@H]2O[C@@H]2O[C@@H](CO)[C@H](O)[C@@H](O)[C@@H]2NC)[C@@H](N/C(N)=N\[H])[C@@H]1O [Streptomycin],MIC,[1]; [6],0.2 µg/mL
"COc1cc(C=Nc2c[nH]c(=O)[nH]c2=O)ccc1O [XV, 2,4-dioxo-5-(4-hydroxy-3-methoxybenzylidene) imino-1,3-pyrimidine]",Maximal tolerable dose: Concentration of tested compounds (mg/l) at oral introducing,no-breed white mice,300 mg/L
same,Content of IFN in induction mixture after 24-hour incubation,[2]; substance 1 mg/l,"4,5 ± 1,6 IU/3 × 10^4 lymph./ml"
same,Content of IFN in induction mixture after 24-hour incubation,[2]; substance 10 mg/l,"54,2 ± 1,8 IU/3 × 10^4 lymph./ml"
same,Content of IFN in induction mixture after 24-hour incubation,[2]; substance 100 mg/l,105 ± 2 IU/3 × 10^4 lymph./ml
"O=c1[nH]cc(N=Cc2cc([N+](=O)[O-])ccc2O)c(=O)[nH]1 [XIX, 2,4-dioxo-5-(2-hydroxy-5-nitrobenzylidene) imino-1,3-pyrimidine]",% of protection,[3]; [7],80%
same,Quantity of the unchanged cells,[3]; [7],8000
same,Maximal tolerable dose: Concentration of tested compounds (mg/l) at oral introducing,no-breed white mice,300 mg/L
"O=c1[nH]cc(N=Cc2cc(Br)cc(Br)c2O)c(=O)[nH]1 [XIII, 2,4-dioxo-5-(2-hydroxy-3,5-dibromobenzylidene) imino-1,3-pyrimidine]",% of protection,[3]; [7],80%
same,Quantity of the unchanged cells,[3]; [7],8000
same,Maximal tolerable dose: Concentration of tested compounds (mg/l) at oral introducing,no-breed white mice,300 mg/L
Vitamin E [reference compound],% of reducing AIAT,"rats; Vitamin E 100 mg/kg, reference agent",−30%
"CN(C)c1ccc(C=Nc2c[nH]c(=O)[nH]c2=O)cc1 [XXV, 2,4-dioxo-5-(4-dimethylamino-benzylidene) imino-1,3-pyrimidine]",Maximal tolerable dose: Concentration of tested compounds (mg/l) at oral introducing,no-breed white mice,300 mg/L
same,percentage of cell protection from infection,C.trachomatis D323,55%
same,Number of unchanged cells,C.trachomatis D323,7.700
same,activity against chlamydia (in words),C.trachomatis D323,marked activity against chlamydia
NNC(=O)c1ccncc1 [Isoniazid],MIC,[1]; [6],0.1 µg/mL
"Cc1c(N(C)CS(=O)(=O)[O-])c(=O)n(-c2ccccc2)n1C.[Na+] [Analginum, reference compound]",Prolongation of the latent period of response (%),"mice [4]; Analginum 2 mg/kg, reference agent",86%
"O=C(CCCN1CCC(O)(c2ccc(Cl)cc2)CC1)c1ccc(F)cc1 [Haloperidol, reference compound]",Point number,mice [5],27
"O=c1[nH]cc(N=Cc2cc(Cl)cc(Cl)c2O)c(=O)[nH]1 [XII, 2,4-dioxo-5-(2-hydroxy-3,5-dichlorobenzylidene) imino-1,3-pyrimidine]",% of reducing AIAT,"rats; perorally 20 mg/kg 30 minutes before and 7 hours after CCl4, assessed 24 hours later, relative to control group",−48%
same,% of protection,[3]; [7],90%
same,Quantity of the unchanged cells,[3]; [7],9000
same,MIC,[1],100 µg/mL
same,Point number,mice [5],35
same,Maximal tolerable dose: Concentration of tested compounds (mg/l) at oral introducing,no-breed white mice,300 mg/L
same,Prolongation of the latent period of response (%),"mice [4]; intraperitoneal 30 mg/kg, more than 50% = analgesic activity",96%
"O=c1[nH]cc(N=Cc2cc(Br)ccc2O)c(=O)[nH]1 [VIII, 2,4-dioxo-5-(2-hydroxy-5-bromobenzylidene) imino-1,3-pyrimidine]",MIC,[1],100 µg/mL
same,Maximal tolerable dose: Concentration of tested compounds (mg/l) at oral introducing,no-breed white mice,300 mg/L
CC[C@@H](CO)NCCN[C@@H](CC)CO [Ethambutol],MIC,[1]; [6],5 µg/mL
Rifampycin,MIC,[1],0.05 µg/mL
"O=c1[nH]cc(N=Cc2ccccc2Cl)c(=O)[nH]1 [IV, 2,4-dioxo-5-(2-chlorobenzylidene) imino-1,3-pyrimidine]",Maximal tolerable dose: Concentration of tested compounds (mg/l) at oral introducing,no-breed white mice,300 mg/L
same,Content of IFN in induction mixture after 24-hour incubation,[2]; substance 1 mg/l,"15,2 ± 0,3 IU/3 × 10^4 lymph./ml"
same,Content of IFN in induction mixture after 24-hour incubation,[2]; substance 10 mg/l,"62,5 ± 1,3 IU/3 × 10^4 lymph./ml"
same,Content of IFN in induction mixture after 24-hour incubation,[2]; substance 100 mg/l,"123,6 ± 0,5 IU/3 × 10^4 lymph./ml"
"Nc1nc2c(ncn2COCCO)c(=O)[nH]1 [Acyclovir, reference compound]",% of protection,[3]; Acyclovir 30 μg/ml,80%
same,Quantity of the unchanged cells,[3]; Acyclovir 30 μg/ml,8000
"O=c1[nH]cc(N=Cc2ccccc2[N+](=O)[O-])c(=O)[nH]1 [XVIII, 2,4-dioxo-5-(2-nitrobenzylidene) imino-1,3-pyrimidine]",MIC,[1],100 µg/mL
same,Maximal tolerable dose: Concentration of tested compounds (mg/l) at oral introducing,no-breed white mice,300 mg/L
"O=c1[nH]cc(N=Cc2cc(I)cc(I)c2O)c(=O)[nH]1 [XXIV, 2,4-dioxo-5-(2-hydroxy-3,5-diiodobenzylidene) imino-1,3-pyrimidine]",MIC,[1],100 µg/mL
same,Maximal tolerable dose: Concentration of tested compounds (mg/l) at oral introducing,no-breed white mice,300 mg/L
